Columns and labels:
[1] = Light fastness of recorded image (xenon light, weatherometer); assay type: physicochemical; parameters: key: An image having a dye retention of 80% or higher at every measuring point was graded A; An image having a dye retention lower than 80% at one or two out of three points was graded B; An image having a dye retention lower than 80% at every point was graded C; details: dye retention after xenon light 85,000 lux for 7 days; initial densities 1, 1.5, 2.0; Super Photo Grade paper
Procedure: An image was recorded on photo glossy paper (Super Photo Grade, available from Fuji Photo Film Co., Ltd.) on ink jet printer (PM-770C, available from Seiko Epson Corp.) by using each of ink liquids A to I. The resulting image was evaluated for hue, light fastness, and ozone resistance as follows.
As to light fastness, the image density immediately after recording (initial density: Ci) was measured with a reflection densitometer X-Rite 310TR. After the image was exposed to xenon light (85,000 lux) for 7 days in a weatherometer (Atlas C.65, from Atlas Electric Devices Co.), the image density (Cf) was measured again at three points whose initial densities were 1, 1.5, and 2.0. A dye retention (%) was calculated from equation: Dye retention (%)=[…]
An image having a dye retention of 80% or higher at every measuring point was graded A. An image having a dye retention lower than 80% at one or two out of three points was graded B. An image having a dye retention lower than 80% at every point was graded C.

[2] = Ozone resistance of recorded image (ozone gas chamber); assay type: physicochemical; details: dye retention after ozone gas 5 ppm for 24 hours; three density points; Super Photo Grade paper
Procedure: An image was recorded on photo glossy paper (Super Photo Grade, available from Fuji Photo Film Co., Ltd.) on ink jet printer (PM-770C, available from Seiko Epson Corp.) by using each of ink liquids A to I. The resulting image was evaluated for hue, light fastness, and ozone resistance as follows. As to ozone resistance, the recorded image was left to stand in a chamber having an ozone gas concentration of 5 ppm for 24 hours. A dye retention after exposure to ozone was obtained in the same manner as for evaluation of light fastness. The ozone concentration in the chamber was set with an ozone gas monitor (OZG-EM-01, available from […] Co., Ltd.). An image having a dye retention of 70% or higher at every measuring point was graded A. An image having a dye retention lower than 70% at one or two out of three points was graded B. An image having a dye retention lower than 70% at every point was graded C.

Compound | Light Fastness [1] | Ozone fastness [2]
O=C(O)c1ccccc1/N=N/c1c(S(=O)(=O)O)cc2cc(S(=O)(=O)[O-])cc(Nc3nc(O)nc(Nc4ccccc4C(=O)O)n3)c2c1O.[Na+] [h-3] | C (An image having a dye retention lower than 80% at every point was graded C) | C (An image having a dye retention lower than 70% at every point was graded C)
Cn1c(=O)cc2c3c(c(Nc4ccc(Nc5nc(O)nc(Nc6cc(S(=O)(=O)[O-])ccc6S(=O)(=O)O)n5)cc4S(=O)(=O)O)ccc31)C(=O)c1ccccc1-2.[Na+] [h-2] | B | C (An image having a dye retention lower than 70% at every point was graded C)
